Data from paper PMC4753070 (Bioorganic & medicinal chemistry letters, 2016).
“Also recorded” adds a separate entry of the source.

What was measured:
[1] = system: histone H3K9 acetylation in mouse forebrain primary neuronal cultures; experiment: Neuronal histone acetylation assay, H3K9ac immunofluorescence; type: cell-based; conditions: 1 and 10 μM, 24 hrs, relative to SAHA
[2] = system: histone H4K12 acetylation in mouse forebrain primary neuronal cultures; experiment: Neuronal histone acetylation assay, H4K12ac immunofluorescence; type: cell-based; conditions: 1 and 10 μM, 24 hrs, relative to SAHA
[3] = mouse, intraperitoneal 25 mg/kg; cited from earlier work
[4] = system: recombinant human HDAC1-3; experiment: In vitro HDAC1-3 inhibition, potency comparison across the three isoforms; type: biochemical
HDAC5 = HDAC5 (Homo sapiens, UniProt Q9UQL6); experiment: In vitro HDAC5; type: biochemical
Sequence of HDAC5 (Q9UQL6 whole entry, species assumed): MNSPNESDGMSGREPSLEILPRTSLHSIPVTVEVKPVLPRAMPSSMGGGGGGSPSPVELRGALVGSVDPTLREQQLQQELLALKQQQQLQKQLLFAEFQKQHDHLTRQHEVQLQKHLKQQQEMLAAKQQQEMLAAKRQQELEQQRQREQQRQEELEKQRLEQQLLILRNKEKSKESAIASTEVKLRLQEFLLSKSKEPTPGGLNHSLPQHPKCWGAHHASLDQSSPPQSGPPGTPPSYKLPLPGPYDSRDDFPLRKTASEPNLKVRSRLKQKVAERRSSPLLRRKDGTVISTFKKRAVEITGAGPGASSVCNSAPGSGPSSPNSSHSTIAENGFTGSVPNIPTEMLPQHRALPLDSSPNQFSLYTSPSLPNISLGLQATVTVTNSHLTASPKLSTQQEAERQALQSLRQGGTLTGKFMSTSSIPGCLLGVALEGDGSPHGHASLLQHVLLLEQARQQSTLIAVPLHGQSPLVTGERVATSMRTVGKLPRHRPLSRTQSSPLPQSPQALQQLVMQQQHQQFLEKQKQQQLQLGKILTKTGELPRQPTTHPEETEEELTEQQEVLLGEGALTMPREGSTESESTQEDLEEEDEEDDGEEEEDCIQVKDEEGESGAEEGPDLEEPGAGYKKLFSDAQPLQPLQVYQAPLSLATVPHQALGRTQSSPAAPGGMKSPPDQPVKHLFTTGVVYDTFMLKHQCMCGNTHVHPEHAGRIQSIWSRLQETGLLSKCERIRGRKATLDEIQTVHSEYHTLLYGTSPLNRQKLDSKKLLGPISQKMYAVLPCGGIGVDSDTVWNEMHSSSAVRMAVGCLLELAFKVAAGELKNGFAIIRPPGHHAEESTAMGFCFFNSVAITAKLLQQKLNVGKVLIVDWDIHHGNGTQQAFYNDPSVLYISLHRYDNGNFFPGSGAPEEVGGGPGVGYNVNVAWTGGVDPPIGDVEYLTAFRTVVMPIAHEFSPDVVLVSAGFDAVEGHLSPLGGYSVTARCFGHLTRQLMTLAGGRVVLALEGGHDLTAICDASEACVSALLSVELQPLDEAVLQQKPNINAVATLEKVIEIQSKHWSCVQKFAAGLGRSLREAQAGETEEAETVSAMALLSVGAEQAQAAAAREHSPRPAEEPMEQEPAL

[5] = Mouse plasma pharmacokinetics and brain-to-plasma ratio; type: in vivo

Compound	induction of histone H3K9 acetylation (H3K9ac) [1]	induction of histone H4K12 acetylation (H4K12ac) [2]	also measured
COc1ccc(Br)c(/C=N/NC(=O)CCCCCC(=O)NO)c1 [Compound 9j]	more effective	more effective	–
NNC(=O)CCCCCC(=O)NO [Compound 3b]	No induction	No induction	–
O=C(CCCCCC(=O)N/N=C/c1ccc(-c2ccccc2)cc1)NO [Compound 9b, crebinostat]	greater increases; also recorded: more effective	greater increases; also recorded: more effective	brain Cmax [3]: 60 nM; fold reduction in IC50 versus SAHA ([4]; HDAC1, 2 or 3): > 5 fold; activity toward HDAC5 (HDAC5): no activity
NNC(=O)CCCCCCC(=O)NO [Compound 7]	No induction	No induction	–
O=C(CCCCCCC(=O)N/N=C/c1ccc(-c2ccccc2)cc1)NO [Compound 9c]	greater increases	greater increases	fold improved potency for inhibiting HDAC1-3 versus crebinostat (9b) ([4]; HDAC1-3, biochemical reaction): ~ 2 fold
COc1cc(O)cc(OC)c1/C=N/NC(=O)CCCCCC(=O)NO [Compound 9k]	least potent	least potent	–
O=C(CCCCCC(=O)N/N=C/c1ccc(-c2cccnc2)cc1)NO [Compound 9f, neurinostat]	most potent	most potent	plasma maximum concentration ([5]; intraperitoneal 25 mg/kg, peripheral blood): 1.9 µM; brain-to-plasma ratios relative to those measured for crebinostat (9b) ([5]; time points 0.5, 1 and 2 hours): about twice; activity toward HDAC5 (HDAC5): no activity
O=C(CCCCC(=O)N/N=C/c1ccc(-c2ccccc2)cc1)NO [Compound 9a]	–	–	fold increase in IC50's over those of crebinostat (9b) ([4]; HDAC1, 2 or 3): approximately 20 fold
NNC(=O)CCCCC(=O)NO [Compound 3a]	No induction	No induction	–
